From US6737383B1, “Herbicidal oxadiazolidines” (priority 1999, dated 2004)

Experiments:
deadnettle [1] = assay: Test E deadnettle; assay type: in vivo, Lamium amplexicaule; details: Postemergence
Experimental: (§1) Compounds evaluated in this test were formulated in a non-phytotoxic solvent mixture which included a surfactant and applied to plants that were in the 1- to 4-leaf stage (postemergence application). A mixture of sandy loam soil and greenhouse potting mix in a 60:40 ratio was used for the postemergence test.
(§2) Plantings of these crops and weed species were adjusted to produce plants of appropriate size for the postemergence test. All plant species were grown using normal greenhouse practices. Crop and weed species include annual bluegrass (Poa annua), blackgrass (Alopecurus myosuroides), black nightshade (Solanum nigra), chickweed (Stellaria media), common poppy (Papaver rhoeas), deadnettle (Lamium amplexicaule), downy brome (Bromus tectorum), field violet (Viola arvensis), galium (Galium aparine), green foxtail (Setaria viridis), Italian ryegrass (Lolium multiflorum), jointed goatgrass (Aegilops cylindrica), kochia (Kochia scoparia), lambsquarters (Chenopodium album), littleseed canarygrass (Phalaris minor), rape (Brassica napus), redroot pigweed (Amaranthus retroflexus), Russian thistle (Salsola kali), scentless chamomile (Matricaria inodora), spring barley (Hordeum vulgare), sugar beet (Beta vulgaris), sunflower (Helianthus annuus), ivyleaf speedwell (Veronica hederaefolia), spring wheat (Triticum aestivum), winter wheat (Triticum aestivum), wild buckwheat (Polygonum convolvulus), wild mustard (Sinapis arvensis), wild oat (Avena fatua), windgrass (Apera spica-venti) and winter barley (Hordeum vulgare).
(§3) Treated plants and untreated controls were maintained in a greenhouse for approximately 21 to 28 days, after which all treated plants were compared to untreated controls and visually evaluated. […] A dash response (-) means no test result.

field violet = assay: Test E field violet; assay type: in vivo, Viola arvensis; details: Preemergence
galium [2] = assay: Test E galium; assay type: in vivo, Galium aparine; details: Preemergence
annual bluegrass [3] = assay: Test E annual bluegrass; assay type: in vivo, Poa annua; details: Preemergence
green foxtail = assay: Test E green foxtail; assay type: in vivo, Setaria viridis; details: Postemergence
Experimental: as §1, §2, §3

deadnettle [4] = assay: Test E deadnettle; assay type: in vivo, Lamium amplexicaule; details: Preemergence
annual bluegrass [5] = assay: Test E annual bluegrass; assay type: in vivo, Poa annua; details: Postemergence
Experimental: as §1, §2, §3

sugar beet [6] = assay: Test E sugar beet; assay type: in vivo, Beta vulgaris; details: Preemergence
black nightshade = assay: Test E black nightshade; assay type: in vivo, Solanum nigra; details: Preemergence
jointed goatgrass = assay: Test E jointed goatgrass; assay type: in vivo, Aegilops cylindrica; details: Preemergence
redroot pigweed = assay: Test E redroot pigweed; assay type: in vivo, Amaranthus retroflexus; details: Preemergence
windgrass = assay: Test E windgrass; assay type: in vivo, Apera spica-venti; details: Preemergence
sunflower = assay: Test E sunflower; assay type: in vivo, Helianthus annuus; details: Postemergence
Outline: (§4)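 Compound formulated with surfactant in a non-phytotoxic solvent (postemergence: young 1- to 4-leaf plants); held in greenhouse approx. 21–28 days; visual assessment against untreated plants.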

blackgrass = assay: Test E blackgrass; assay type: in vivo, Alopecurus myosuroides; details: Postemergence
Outline: as §4

lambsquarters [7] = assay: Test E lambsquarters; assay type: in vivo, Chenopodium album; details: Preemergence
sugar beet [8] = assay: Test E sugar beet; assay type: in vivo, Beta vulgaris; details: Postemergence
Outline: as §4

downy brome = assay: Test E downy brome; assay type: in vivo, Bromus tectorum; details: Postemergence; for Plant response rating, Downy brome: 0 to 100 scale
Experimental: as §1, §2, §3

rape [9] = assay: Test E rape; assay type: in vivo, Brassica napus; details: Preemergence
galium [10] = assay: Test E galium; assay type: in vivo, Galium aparine; details: Postemergence
Experimental: (§5) […] A mixture of sandy loam soil and greenhouse potting mix in a 60:40 ratio was used for the postemergence test.
as §2, §3

wild buckwheat = assay: Test E wild buckwheat; assay type: in vivo, Polygonum convolvulus; details: Preemergence
lambsquarters [11] = assay: Test E lambsquarters; assay type: in vivo, Chenopodium album; details: Postemergence
Outline: as §4

rape [12] = assay: Test E rape; assay type: in vivo, Brassica napus; details: Postemergence
Experimental: as §5, §2, §3

wild oat = assay: Test E wild oat; assay type: in vivo, Avena fatua; details: Postemergence
Outline: as §4

Russian thistle = assay: Test E Russian thistle; assay type: in vivo, Salsola kali; details: Postemergence
Experimental: as §5, §2, §3

winter barley = assay: Test E winter barley; assay type: in vivo, Hordeum vulgare; details: Postemergence
Outline: as §4

littleseed canarygrass = assay: Test E littleseed canarygrass; assay type: in vivo, Phalaris minor; details: Postemergence
Outline: as §4

[13] = Rate 250 g/ha, 0 to 100 scale (0 no effect, 100 complete control)
[14] = Rate 62 g/ha, 0 to 100 scale, 0 no effect, 100 complete control
[15] = Rate 125 g/ha, 0 to 100 scale (0 no effect, 100 complete control)

C=CCn1c(=O)on(C(=O)N(c2ccccc2)C(C)C)c1=O [Compound 93]
Plant response rating, Deadnettle (deadnettle [1]; Rate 62 g/ha, 0 to 100 scale): 0
Plant response rating, Deadnettle (deadnettle [1]; Rate 125 g/ha, 0 to 100 scale): 0
Plant response rating, Deadnettle (deadnettle [1]; [13]): 0
Plant response rating, Field violet (field violet; [14]): 0
Plant response rating, Field violet (field violet; [15]): 10
Plant response rating, Field violet (field violet; Rate 250 g/ha, 0 to 100 scale): 30
Plant response rating, Galium (galium [2]; [14]): 10
Plant response rating, Galium (galium [2]; [15]): 15
Plant response rating, Galium (galium [2]; Rate 250 g/ha, 0 to 100 scale): 100
Plant response rating, Annual bluegras (annual bluegrass [3]; [14]): 10
Plant response rating, Annual bluegras (annual bluegrass [3]; [15]): 50
Plant response rating, Annual bluegras (annual bluegrass [3]; Rate 250 g/ha, 0 to 100 scale): 65
Plant response rating, Green foxtail (green foxtail; Rate 62 g/ha, 0 to 100 scale): 0
Plant response rating, Green foxtail (green foxtail; Rate 125 g/ha, 0 to 100 scale): 0
Plant response rating, Green foxtail (green foxtail; [13]): 0
Plant response rating, Deadnettle (deadnettle [4]; [14]): 10
Plant response rating, Deadnettle (deadnettle [4]; [15]): 10
Plant response rating, Deadnettle (deadnettle [4]; Rate 250 g/ha, 0 to 100 scale): 85
Plant response rating, Annual bluegras (annual bluegrass [5]; Rate 62 g/ha, 0 to 100 scale): 20
Plant response rating, Annual bluegras (annual bluegrass [5]; Rate 125 g/ha, 0 to 100 scale): 20
Plant response rating, Annual bluegras (annual bluegrass [5]; [13]): 50
Plant response rating, Sugar beet (sugar beet [6]; [14]): 0
Plant response rating, Sugar beet (sugar beet [6]; [15]): 10
Plant response rating, Sugar beet (sugar beet [6]; Rate 250 g/ha, 0 to 100 scale): 5
Plant response rating, Blk nightshade (black nightshade; [14]): 60
Plant response rating, Blk nightshade (black nightshade; [15]): 65
Plant response rating, Blk nightshade (black nightshade; Rate 250 g/ha, 0 to 100 scale): 80
Plant response rating, Jointed goatgra (jointed goatgrass; [14]): 15
Plant response rating, Jointed goatgra (jointed goatgrass; [15]): 70
Plant response rating, Jointed goatgra (jointed goatgrass; Rate 250 g/ha, 0 to 100 scale): 60
Plant response rating, Redroot pigweed (redroot pigweed; [14]): 100
Plant response rating, Redroot pigweed (redroot pigweed; [15]): 100
Plant response rating, Redroot pigweed (redroot pigweed; Rate 250 g/ha, 0 to 100 scale): 90
Plant response rating, Windgrass (windgrass; [14]): 100
Plant response rating, Windgrass (windgrass; [15]): 100
Plant response rating, Sunflower (sunflower; Rate 62 g/ha, 0 to 100 scale): 0
Plant response rating, Sunflower (sunflower; Rate 125 g/ha, 0 to 100 scale): 0
Plant response rating, Sunflower (sunflower; [13]): 0
Plant response rating, Blackgrass (blackgrass; Rate 62 g/ha, 0 to 100 scale): 10
Plant response rating, Blackgrass (blackgrass; Rate 125 g/ha, 0 to 100 scale): 30
Plant response rating, Blackgrass (blackgrass; [13]): 40
Plant response rating, Lambsquarters (lambsquarters [7]; [14]): 100
Plant response rating, Lambsquarters (lambsquarters [7]; [15]): 100
Plant response rating, Lambsquarters (lambsquarters [7]; Rate 250 g/ha, 0 to 100 scale): 100
Plant response rating, Sugar beet (sugar beet [8]; Rate 62 g/ha, 0 to 100 scale): 0
Plant response rating, Sugar beet (sugar beet [8]; Rate 125 g/ha, 0 to 100 scale): 0
Plant response rating, Sugar beet (sugar beet [8]; [13]): 0
Plant response rating, Downy brome (downy brome; Rate 62 g/ha): 0
Plant response rating, Downy brome (downy brome; Rate 125 g/ha): 0
Plant response rating, Downy brortie (downy brome; [13]): 0
Plant response rating, Rape (rape [9]; [14]): 0
Plant response rating, Rape (rape [9]; [15]): 0
Plant response rating, Rape (rape [9]; Rate 250 g/ha, 0 to 100 scale): 10
Plant response rating, Galium (galium [10]; Rate 62 g/ha, 0 to 100 scale): 0
Plant response rating, Galium (galium [10]; Rate 125 g/ha, 0 to 100 scale): 0
Plant response rating, Galium (galium [10]; [13]): 0
Plant response rating, Wild buckwheat (wild buckwheat; [14]): 30
Plant response rating, Wild buckwheat (wild buckwheat; [15]): 30
Plant response rating, Wild buckwheat (wild buckwheat; Rate 250 g/ha, 0 to 100 scale): 40
Plant response rating, Lambsquarters (lambsquarters [11]; Rate 62 g/ha, 0 to 100 scale): 0
Plant response rating, Lambsquarters (lambsquarters [11]; Rate 125 g/ha, 0 to 100 scale): 0
Plant response rating, Lambsquarters (lambsquarters [11]; [13]): 0
Plant response rating, Rape (rape [12]; Rate 62 g/ha, 0 to 100 scale): 0
Plant response rating, Rape (rape [12]; Rate 125 g/ha, 0 to 100 scale): 0
Plant response rating, Rape (rape [12]; [13]): 0
Plant response rating, Wild oat (wild oat; Rate 62 g/ha, 0 to 100 scale): 0
Plant response rating, Wild oat (wild oat; Rate 125 g/ha, 0 to 100 scale): 0
Plant response rating, Wild oat (wild oat; [13]): 0
Plant response rating, Russian thistle (Russian thistle; Rate 62 g/ha, 0 to 100 scale): 0
Plant response rating, Russian thistle (Russian thistle; Rate 125 g/ha, 0 to 100 scale): 0
Plant response rating, Russian thistle (Russian thistle; [13]): 0
Plant response rating, Barley (winter) (winter barley; Rate 62 g/ha, 0 to 100 scale): 0
Plant response rating, Barley (winter) (winter barley; Rate 125 g/ha, 0 to 100 scale): 0
Plant response rating, Barley (winter) (winter barley; [13]): 0
Plant response rating, LS canarygrass (littleseed canarygrass; Rate 62 g/ha, 0 to 100 scale): 0
Plant response rating, LS canarygrass (littleseed canarygrass; Rate 125 g/ha, 0 to 100 scale): 0
Plant response rating, LS canarygrass (littleseed canarygrass; [13]): 0
